What was measured:
Assay in all cases: radiolabelled glycopeptide formation, ConA Sepharose capture, gamma counting
T. cruzi OST = assay type: biochemical, Trypanosoma cruzi; settings: 10 μM acceptor tripeptide; Mg2+, Mn2+, pH 7.4; non-cooperative
T. vaginalis OST = assay type: biochemical, Trichomonas vaginalis; settings: 10 μM acceptor tripeptide; Mg2+, Mn2+, pH 7.4; non-cooperative
E. histolytica OST = assay type: biochemical, Entamoeba histolytica; settings: 15 μM acceptor tripeptide; Mg2+, Mn2+, pH 7.4; non-cooperative

Substance | Km (T. cruzi OST) [µM] | Km (T. vaginalis OST) [µM] | Km (E. histolytica OST) [µM]
M9GN2-PP-Dol | 0.49 |  | 
M5GN2-PP-Dol |  | 0.22 | 0.72

From article PMC2064103 (The Journal of Cell Biology, 2007)
